Laboratory results as given in article PMC8012331, “Drug-induced hepatic steatosis in absence of severe mitochondrial dysfunction in HepaRG cells: proof of multiple mechanism-based toxicity” (Cell Biology and Toxicology, 2020).
Values joined by “and” are separate entries in the source; they are usually repeats but may differ in a detail not shown here. Equal entries are not always repeated. Where two headings read alike, the source gives them in different places.

Tests used:
[1] = patients, ref given per drug, cited from earlier work; for Cmax: read-out: Maximum plasma concentration (Cmax) in patients
[2] = test system: primary human hepatocytes (PHH); test: Neutral lipids with Nile red in primary human hepatocytes; type: cell-based; conditions: 4 days
Experimental: Primary human hepatocytes (PHH) were purchased from Biopredic International (Saint-Grégoire, France). Cells were seeded by the supplier in coated 96-well plates at a density of 5 × 10^4 cells/well. Upon receipt, culture medium was removed and replaced by William’s E medium supplemented as previously described for HepaRG cell differentiation, except for DMSO set at 1%. After 2–3 days, cells were treated as for HepaRG cells. For HepaRG cells and PHH, cells were always maintained in incubators at 37 °C with 5% CO2 and saturating humidity.
(§1) Cells were then incubated with PBS containing 0.1 μg/mL Nile red for 30 min and washed once. […] For each well, four pictures were taken at a magnification of × 20 and analyzed with Columbus software (PerkinElmer) for quantification. These pictures were always taken in four different areas around the center of each well, and these areas were the same from one well to another, as programmed by the Columbus software. This software was also designed to count only living cells after exclusion of dying cells harboring nuclei with abnormal shape or altered Hoechst intensity. […] Neutral lipids were then normalized per number of nuclei and expressed relative to control cells. Examples of images used for neutral lipid quantification are shown in Supplementary Fig. 2.

[3] = test system: apoC3 secretion; test: apoC3 level in culture medium (HTRF), HepaRG cells; type: cell-based, human; conditions: 4 days, culture medium, vs control
Experimental: (§2) Briefly, HepaRG cells were seeded in 96-well plates at a density of 2.6 × 10^4 cells/cm^2 and were first incubated in William’s E medium supplemented with 10% FBS (50% FBS from Eurobio and 50% FBS from GE Healthcare), 100 U/mL penicillin, 100 μg/mL streptomycin, 2 mM glutamine, 5 μg/mL insulin, and 50 μM hydrocortisone hemisuccinate. […] During this 1-month period, the culture medium was renewed three times a week. […] HepaRG cells were next cultured in the same FBS/DMSO conditions and incubated for 4 days with each drug at different concentrations. Culture medium was renewed every day and all investigations were performed after 96 h (i.e., 24 h after the fourth treatment). These investigations were mostly performed in 96-well plates except for western blot analysis, for which 6-well plates were used. Experiments were carried out on passages 9 to 16. All drugs (except DPEN), etomoxir, lomitapide, tunicamycin, thapsigargin, and TUDCA were dissolved in DMSO. DPEN was dissolved in water.
Apolipoprotein C3 (apoC3) level was measured using the Human Apolipoprotein C3 kit from Cisbio Bioassays (Codolet, France), according to the manufacturer’s instructions. Briefly, 10 μL of supernatants was incubated with two different specific anti-human apoC3 antibodies, one donor and one acceptor. The detection principle of apoC3 is based on HTRF® (Homogeneous Time Resolved Fluorescence), a time-resolved FRET (Förster Resonance Energy Transfer) technology. After 2 h of incubation, light emission was measured with the Infinite F Nano+ microplate reader (Tecan, Männedorf, Switzerland). ApoC3 level was calculated utilizing standard curve, based on the ratio of A665 nm/A615 nm, and normalized to the total cellular protein content. Results were expressed in comparison to control cells.

[4] = test system: apoB secretion; test: apoB level in culture medium (ELISA), HepaRG cells; type: cell-based, human; conditions: 4 days, culture medium, vs control
Experimental: (§3) Experiments were carried out on passages 9 to 16. […] DPEN was dissolved in water.
Twenty-four hours after the last treatment, cell supernatants were removed and stored at − 80 °C until use for apolipoprotein measurement. ApoB level was measured using the Human Apolipoprotein B ELISA^pro kit from Mabtech (Nacka Strand, Sweden), according to the manufacturer’s instructions. Briefly, 50 μL of samples were diluted 2× in Apo ELISA buffer before a 2-h incubation in the precoated strip plates provided in the kit. The plates were washed and incubated 1 h with the biotinylated monoclonal anti-human apoB (LDL-11-biotin) antibody. The plates were then washed and incubated 1 h with a streptavidin–horseradish peroxidase conjugated antibody. After another washing, 3,3′,5,5′-tetramethylbenzidine (TMB) was used as substrate for 15 min before adding a stop solution. Absorbance at 450 nm was then measured using a POLARstar Omega microplate reader (BMG Labtech, Ortenberg). ApoB level was calculated utilizing a four-parameter standard curve, and normalized to the total cellular protein content and expressed in comparison to control cells.

[5] = test system: mitochondrial fatty acid oxidation (mtFAO); test: mtFAO with [U-14C]palmitic acid in HepaRG cells; type: cell-based, human; conditions: 4 days, vs control
Experimental: as §3
Results were normalized to total protein content determined using the Pierce BCA assay kit from Thermo Fischer Scientific (Waltham, MA). Results were expressed in comparison to control cells.

[6] = test system: HepaRG cells; test: Cellular ATP level (CellTiter-Glo) in HepaRG cells; type: cell-based, human; conditions: 4 days, vs controls
Experimental: Cellular ATP level was measured using the CellTiter-Glo® Luminescent Cell Viability assay purchased from Promega (Charbonnières, France), according to the manufacturer’s instructions. Briefly, control and treated HepaRG cells were first washed with warm PBS and kept for 30 min at room temperature in phenol red-free William’s E medium. Cells were next incubated with the CellTiter-Glo® reagent for 10 min at room temperature. Cells were then transferred in opaque-walled multiwell plates and the luminescent signal was quantified using a POLARstar Omega microplate reader (BMG Labtech, Ortenberg, Germany). Results were expressed in comparison to control cells.

[7] = test system: ERN1 (IRE1α); test: RT-qPCR ERN1 mRNA in HepaRG cells; type: cell-based, human; conditions: 4 days, vs control
Experimental: Total RNA was extracted with the Nucleospin RNA isolation system purchased from Macherey-Nagel (Düren, Germany), which included a DNase treatment step. Quantification of isolated RNAs was assessed using a Nanodrop 1000 (Thermo Fisher Scientific, Waltham, MA). RNAs were reverse-transcribed into cDNAs using the High-Capacity cDNA Reverse Transcription Kit purchased from Applied Biosystems (Woolston, UK). Gene expression was assessed by real-time quantitative PCR analysis (RT-qPCR) using SYBR Green PCR Master Mix (Applied Biosystems) and a 384-well QuantStudio™ 7 Flex Real-Time PCR System (Thermo Fisher Scientific). Sequences of the primers used to measure gene expression are presented in Supplementary Table 3. Expression of GAPDH was chosen as reference and the 2^−ΔΔCt calculation method was used to express the relative expression of each selected gene.

[8] = treated patients, ref Schulz M et al., Crit Care 2012 ;16(4):R136, cited from earlier work
[9] = test system: de novo lipogenesis (DNL); test: DNL from [2-14C]acetic acid in HepaRG cells; type: cell-based, human; conditions: 4 days, vs control
Experimental: as §3
DNL was assessed by measuring newly synthesized radiolabeled lipids from [2-^14C]acetic acid, using a protocol adapted from Byrne et al. ([2014]). Briefly, culture medium was removed and cells were washed with warm PBS. Next, cells were incubated for 3 h with phenol red-free William’s E medium containing 1% fatty acid-free BSA, [2-^14C]acetic acid (1850 Bq per well, corresponding to 19.4 pM) and 50 μM cold acetic acid. Medium was then gently removed and cells were washed with warm PBS before adding a mix of hexane/isopropanol (3:2; v/v). Cell culture plates were sealed and incubated for 1 h at room temperature for lipid extraction. After transfer of the plate content in 200-μL microtubes, hexane and PBS were added to have a hexane/isopropanol/PBS ratio of 6:2:3 (v/v/v). Microtubes were then centrifuged at 1000×g for 5 min and radiolabeled lipids were counted in the upper phase with a Tri-Carb 4910TR liquid scintillation counter (PerkinElmer). Results were normalized to total protein content and expressed in comparison to control cells.

[10] = Maximum plasma concentration (Cmax) in patients; type: in vivo, human; conditions: worked out from cited Cmax in patients
[11] = test system: HepaRG cells; test: Neutral lipids with Nile red in HepaRG cells; conditions: 4 days
Experimental: as §2, §1

[12] = selected concentrations (ATP loss < 30%, not above 100 × Cmax), vs control

Row | Compound | Maximum plasma concentration (Cmax) in patients [1] | Cmax [1] | Effect on apoC3 secretion [3] | Effect on apoB secretion [4] | Effect on mtFAO [5] | Loss of cellular ATP relative to the maximum concentration selected for the study [6] | Effect on DNL [9] | Concentration corresponding to 100xCmax [10] | Accumulation of neutral lipids (steatosis) [11, 12] | further results
1 | O=c1[nH]cc(F)c(=O)[nH]1 [5FU, 5-fluorouracil] | ≤ 55000 ng/mL | ≤ 420 µM | reduced the secretion | reduced the secretion | significantly enhance mtFAO | 100 µM (loss of cellular ATP above 30% of the controls for higher concentrations, as shown in Supp. fig 1) | curb this metabolic pathway | 42000 µM | significant accumulation of neutral lipids | Steatosis in PHH batches (six batches tested) [2]: induced steatosis in only one PHH batch; ERN1 (IRE1α) mRNA level [7]: enhanced IRE1α mRNA level; Therapeutic blood (or plasma) concentration in patients ([8]; listed as 5-Fluorouracil (5FU)): 0.05 - 0.3 mg/L and 0.38 - 2.3 µM
2 | Oc1ncnc2[nH]ncc12 [ALLO, allopurinol] | ≤ 2050 ng/mL | ≤ 15 µM | reduced the secretion | reduced the secretion | significantly enhance mtFAO | 750 µM (loss of cellular ATP above 30% of the controls for higher concentrations, as shown in Supp. fig 1) | curb this metabolic pathway | 1500 µM | significant accumulation of neutral lipids | Steatosis in PHH batches (six batches tested) [2]: accumulation of neutral lipids in five PHH batches; ERN1 (IRE1α) mRNA level [7]: enhanced IRE1α mRNA level; Therapeutic blood (or plasma) concentration in patients ([8]; listed as Allopurinol (ALLO)): 2 - 19 mg/L and 15 - 140 µM
3 | CC(C)(S)[C@@H](N)C(=O)O [DPEN, D-penicillamine] | ≤ 3760 ng/mL | ≤ 25 µM |  |  |  | 2500 µM (slight loss of cellular ATP for this concentration, as shown in Supp. fig 1) |  | 2500 µM | did not induce steatosis | Therapeutic blood (or plasma) concentration in patients ([8]; listed as D-penicillamine (DPEN)): 1.7 - 5.6 mg/L and 11.4 - 37.6 µM; Accumulation of neutral lipids (steatosis) ([11]; concentrations above 100 × Cmax (100 μM NIF, 5000 μM DPEN)): significant accumulation of neutral lipids
4 | CC(C)(C)NC(=O)[C@@H]1CN(Cc2cccnc2)CCN1C[C@@H](O)C[C@@H](Cc1ccccc1)C(=O)N[C@H]1c2ccccc2C[C@H]1O [INDI, indinavir] | ≤ 8000 ng/mL | ≤ 13 µM | reduced the secretion | reduced the secretion |  |  | curb this metabolic pathway | 1300 µM | significant accumulation of neutral lipids | 
5 | Cn1cc[nH]c1=S [METHI, methimazole] | ≤ 1500 ng/mL | ≤ 13 µM |  |  |  |  |  |  | did not induce steatosis | Therapeutic blood (or plasma) concentration in patients ([8]; listed as Methimazole (METHI)): 0.5 - 2.5 mg/L and 4.4 - 22 µM
6 | COC(=O)C1=C(C)NC(C)=C(C(=O)OC)C1c1ccccc1[N+](=O)[O-] [NIF, nifedipine] |  |  |  |  |  |  |  |  |  | Therapeutic blood (or plasma) concentration in patients ([8]; listed as Nifedipine (NIF)): 0.025 - 0.15 mg/L and 0.07 - 0.43 µM
7 | CCOC(=O)[C@@]1(CCCCCCOc2ccc(Cl)cc2)CO1 [etomoxir, (+)-etomoxir] |  |  |  |  | blocked |  |  |  |  | 
8 | O=C(NC1CCN(CCCCC2(C(=O)NCC(F)(F)F)c3ccccc3-c3ccccc32)CC1)c1ccccc1-c1ccc(C(F)(F)F)cc1 [lomitapide] |  |  |  | inhibited |  |  |  |  |  | 
